One may read the EC50 as the concentration at which the effect is half-maximal.

The subject of the experiment is HBsAg in HepG2.2.15 cells. In words: HBsAg assay: inhibition of HBsAg in HepG2.2.15 cells (chemiluminescence immunoassay of supernatant). It is filed as cell-based, hepatitis B virus. The note with it: read-out: sAg EC50; HepG2.2.15 cells, supernatant collected at day 6 after exposure, HBsAg CLIA. How it is done:
Inhibition of HBsAg was determined in HepG2.2.15 cells. Cells were maintained in culture medium containing 10% fetal calf serum, […], Glutamine, penicillin/streptomycin. Cells were seeded in 96-well collagen-coated plate at a density of 30,000 cells/well. Serially diluted compounds were added to cells next day at the final DMSO concentration of 0.5%. Cells were incubated with compounds for 2-3 days, after which medium was removed. Fresh medium containing compounds was added to cells for additional 3-4 days. At day 6 after exposure of compounds, supernatant was collected, the HBsAg immunoassay (microplate-based chemiluminescence immunoassay kits, CLIA, Autobio Diagnosics Co., Zhengzhou, China, Catalog #CL0310-2) was used to determine the level of HBsAg according to manufactory instruction. Dose-response curves were generated and the EC50 value (effective concentrations that achieved 50% inhibitory effect) were determined using XLfit software. In addition, cells were seeded at a density of 5,000 cells/well for determination of cell viability in the presence and absence of compounds by using CellTiter-Glo reagent (Promega).
As for `CCC1c2cc(F)c(OC)cc2CN1c1cnc(C(=O)NS(C)(=O)=O)nc1` (single isomer, unassigned) [Example 103, 5-(1-Ethyl-6-fluoro-5-methoxyisoindolin-2-yl)-N-(methylsulfonyl)pyrimidine-2-carboxamide], the concentration giving a half-maximal response (EC50) worked out at 600 nM.

With `CCC1c2cc(F)c(OC)cc2CN1c1cnc(C(=O)Nc2ccccn2)nc1` (single isomer, unassigned) [Example 107, 5-(1-Ethyl-6-fluoro-5-methoxyisoindolin-2-yl)-N-(pyridin-2-yl)pyrimidine-2-carboxamide], the half-maximal effective concentration (EC50) amounted to 49000 nM.

`CCC1c2cc(F)c(OC)cc2CN1c1cnc(C(=O)Nc2ccccn2)nc1` (single isomer, unassigned) [Example 108, 5-(1-Ethyl-6-fluoro-5-methoxyisoindolin-2-yl)-N-(pyridin-2-yl)pyrimidine-2-carboxamide]: the 50% effective concentration (EC50) worked out at 560 nM.

As to `CCC1c2cc(F)c(OC)cc2CN1c1ccnc(C(=O)NC)n1` (single isomer, unassigned) [Example 109, 4-(1-Ethyl-6-fluoro-5-methoxyisoindolin-2-yl)-N-methylpyrimidine-2-carboxamide], the concentration giving a half-maximal response (EC50) was 42000 nM.

For `CCC1c2cc(F)c(OC)cc2CN1c1ccnc(C(=O)NC)n1` (single isomer, unassigned) [Example 110, 4-(1-Ethyl-6-fluoro-5-methoxyisoindolin-2-yl)-N-methylpyrimidine-2-carboxamide], the concentration for a half-maximal effect (EC50) came out at 3000 nM.

Take `CCC1c2cc(F)c(OC)cc2CCN1c1cnc(C(=O)O)nc1` (single isomer, unassigned) [Example 114, 5-(1-Ethyl-7-fluoro-6-methoxy-3,4-dihydro-1H-isoquinolin-2-yl)pyrimidine-2-carboxylic Acid]: the EC50 is 57 nM.

For `CCC1c2cc(F)c(OC)cc2CCN1c1cnc(C(=O)O)nc1` (single isomer, unassigned) [Example 115, 5-(1-Ethyl-7-fluoro-6-methoxy-3,4-dihydro-1H-isoquinolin-2-yl)pyrimidine-2-carboxylic Acid], the EC50 is 6000 nM.

As to `CCC1c2cc(F)c(F)cc2CN1c1cnc(C(=O)O)nc1` (single isomer, unassigned) [Example 116, 5-(1-Ethyl-5,6-difluoroisoindolin-2-yl)pyrimidine-2-carboxylic Acid], the concentration for a half-maximal effect (EC50) amounted to 3000 nM.

As for `CCC1c2cc(F)c(F)cc2CN1c1cnc(C(=O)O)nc1` (single isomer, unassigned) [Example 117, 5-(1-Ethyl-5,6-difluoroisoindolin-2-yl)pyrimidine-2-carboxylic Acid], the EC50 is 15000 nM.

Regarding `CCC1c2cc(F)c(OC)cc2CCN1c1ccnc(-c2ncccn2)n1` (single isomer, unassigned) [Example 128, 2-(2,2′-Bipyrimidin-4-yl)-1-ethyl-7-fluoro-6-methoxy-1,2,3,4-tetrahydroisoquinoline], the concentration for a half-maximal effect (EC50) is 82 nM.

Regarding `CCC1c2cc(F)c(OC)cc2CCN1c1ccnc(-c2ncccn2)n1` (single isomer, unassigned) [Example 129, 2-(2,2′-Bipyrimidin-4-yl)-1-ethyl-7-fluoro-6-methoxy-1,2,3,4-tetrahydroisoquinoline], the EC50 amounted to 15 nM.

Regarding `CCCC1c2ccc(F)c(F)c2CCN1c1ccnc(-c2ncccn2)n1` (single isomer, unassigned) [Example 130, 2-([2,2′-Bipyrimidin]-4-yl)-5,6-difluoro-1-propyl-1,2,3,4-tetrahydroisoquinoline], the EC50 turned out to be 97 nM.

Turning to `CCCC1c2ccc(F)c(F)c2CCN1c1ccnc(-c2ncccn2)n1` (single isomer, unassigned) [Example 131, 2-([2,2′-Bipyrimidin]-4-yl)-5,6-difluoro-1-propyl-1,2,3,4-tetrahydroisoquinoline], the concentration for a half-maximal effect (EC50) came to 2000 nM.

Turning to `CCC1c2cc(F)c(OC)cc2CCN1c1cnc(-c2ncccn2)nc1` (single isomer, unassigned) [Example 133, 2-(2,2′-Bipyrimidin-5-yl)-1-ethyl-7-fluoro-6-methoxy-1,2,3,4-tetrahydroisoquinoline], the EC50 is 3 nM.

The values above are taken from patent publication US20210251991A1, “SUBSTITUTED 2,2'-BIPYRIMIDINYL COMPOUNDS, ANALOGUES THEREOF, AND METHODS USING SAME” (priority 2018, published 2021).
